Results: patent US9549958B2, “Extracts of Cynanchum sp. and active ingredients contained therein in use of arthritis treatment” (INDUSTRIAL TECHNOLOGY RESEARCH INSTITUTE, priority 2011, dated 2017)
≈ marks a conversion by molar mass, not a printed value.

Tests used:
[1] = test system: collagen-induced arthritis model; test: Collagen-induced arthritis model, morbidity and onset; type: in vivo, rat
Procedure: (§1) 50 μg of a fetus bovine type II collagen (CII, Chondrex) was emulsified in a complete Freund's adjuvant (CFA, Sigma). The ankle volume was measured as the basis of a hindpaw volume. On the eighth day after the primary immune, each rat was injected with 100 μg of the collagen emulsified in IFA (Sigma) to induce arthritis. The carrier control group was i.p. injected with 2 ml/kg of 0.5% CMC rats every two days until day 21. The experimental group was […] antofine isolated from Example 1 according to the following regimes: Group 1 was i.p. injected with 3 mg/kg of antofine every two days until Day 20 and then i.p. injected with 3 mg/kg of antofine per day on Day 21˜23; Group 2 was i.p. injected with 3 mg/kg of antofine every three days until Day 20 and then i.p. injected with 3 mg/kg of antofine per day on Day 21˜23; Group 3 was i.p. injected with 2 mg/kg of antofine every two days until Day 20 and then i.p. injected with 3 mg/kg of antofine per day on Day 21˜23; Group 4 was i.p. injected with 3 mg/kg of antofine per day for 5 days, and then stop administration on the next nine days, and i.p. injected with 3 mg/kg of antofine per day on Day 21˜23.; and All rats were scarified on Day 24.

[2] = Weight changes in collagen-induced arthritis model; type: in vivo, rat; settings: various doses of antofine and regimes (Groups 1-4), i.p., rats
Procedure: as §1

TNF-α = TNF-α inhibition in LPS-stimulated activated U937 cells (ELISA); type: cell-based; settings: Homo sapiens, U-937, Example 3
Procedure: A human myeloid leukemia cell line U937 (Rockville, Md.) was obtained from ATCC. The cell line was cultured in a RPMI 1640 medium with a 10% fetal calf serum (FCS) at 37° C., 5% CO2. The cell line maintained in exponential growth. For inducing differentiation, the cells with a starting concentration of 4×10^5 cell/ml were cultured in T150 containing 50 ng/ml PMA (Sigma) for 24 hours. Subsequently, the cells were moved to a fresh medium without PMA and cultured for 48 hours. The cells were collected with rubber policeman (Bellco Glass, Vineland, N.J.) gently scraping the medium bottle for the next step.
The activated U937 cells were seeded into a 96-well plate to form a concentration of 1.6×10^5 cell/well. The ethanol extracts of Cynanchum hancockianum in different concentrations were respectively added 10 μl to the 96-well plate. The final volume of each well was 190 μl. The plate was cultured at 37° C., 5% CO2 for 30 min. Then each well was added 2 μg/ml of lipopolysaccharide (LPS) in PBS 10 μl and cultured at 37° C. for 4 hours. […] The amount of TNF-α was analyzed by an ELISA (TNF-α duoset, R&D, Minneapolis, Minn.). […]
The activated U937 cells obtained from Example 2 were seeded into a 96-well plate to form a concentration of 1.6×10^5 cell/well. […] The amount of TNF-α was analyzed by an ELISA and cell viability was tested by MTT. […]

SMILES: COc1ccc2c3c(c4cc(OC)c(OC)cc4c2c1)C[C@H]1CCCN1C3 [antofine, (−)-antofine]
- Morbidities and onset of arthritis ([1]; Group 1: 3 mg/kg i.p. every two days until Day 20, then 3 mg/kg per day on Day 21-23): decreased morbidities and delayed onsets
- Morbidities and onset of arthritis ([1]; Group 4: 3 mg/kg i.p. per day for 5 days, stop nine days, 3 mg/kg per day on Day 21-23): decreased morbidities and delayed onsets
- Weight changes [2]: not greatly changed
- IC50 (TNF-α): 7 ng/mL (≈ 0.0193 µM)
